One data set addresses α1 adrenalin receptor. Nature of the data set: Binding test on [3H] prazosin (α1 adrenalin receptor). On the set-up: species or system rat. The following applies: [3H] prazosin about 0.2 nM, receptor fraction of rat cerebral cortex.
The target of the next data set is T1, serotonin 1A receptor (Rattus norvegicus, UniProt P19327).
T1 construct: To the receptor fraction of the hippocampus were added a test compound and 0.5 nM of [^3H]; 8-hydroxy-dipropylaminotetralin; from tissue; host or cells: SD rat hippocampus, membrane (receptor) fraction
T1 sequence (P19327 1-422): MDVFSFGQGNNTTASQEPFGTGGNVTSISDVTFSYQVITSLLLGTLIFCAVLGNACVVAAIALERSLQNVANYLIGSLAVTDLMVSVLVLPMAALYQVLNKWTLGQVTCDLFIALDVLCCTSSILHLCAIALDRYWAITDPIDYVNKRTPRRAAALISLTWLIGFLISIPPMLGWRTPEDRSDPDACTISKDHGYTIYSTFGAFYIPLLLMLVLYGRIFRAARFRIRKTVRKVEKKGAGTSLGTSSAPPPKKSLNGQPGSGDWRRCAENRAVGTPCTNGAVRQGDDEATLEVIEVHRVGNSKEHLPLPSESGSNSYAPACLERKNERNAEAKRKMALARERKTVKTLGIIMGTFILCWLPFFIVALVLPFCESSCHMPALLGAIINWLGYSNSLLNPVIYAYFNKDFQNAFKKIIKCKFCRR
Nature of the data set: Binding test on [3H] 8-hydroxy-dipropylaminotetralin (serotonin 1A receptor). The following applies: [3H] 8-OH-DPAT 0.5 nM, receptor fraction of rat hippocampus; read-out: 5HT1a.

For another data set, the target named is serotonin 2 receptor (Rattus norvegicus, UniProt P14842). The experiment in a line: Binding test on [3H] ketanserin (serotonin 2 receptor). The following applies: [3H] ketanserin 0.3 nM, receptor fraction of rat cerebral cortex; read-out: 5HT2.
Chain of serotonin 2 receptor (P14842 whole entry): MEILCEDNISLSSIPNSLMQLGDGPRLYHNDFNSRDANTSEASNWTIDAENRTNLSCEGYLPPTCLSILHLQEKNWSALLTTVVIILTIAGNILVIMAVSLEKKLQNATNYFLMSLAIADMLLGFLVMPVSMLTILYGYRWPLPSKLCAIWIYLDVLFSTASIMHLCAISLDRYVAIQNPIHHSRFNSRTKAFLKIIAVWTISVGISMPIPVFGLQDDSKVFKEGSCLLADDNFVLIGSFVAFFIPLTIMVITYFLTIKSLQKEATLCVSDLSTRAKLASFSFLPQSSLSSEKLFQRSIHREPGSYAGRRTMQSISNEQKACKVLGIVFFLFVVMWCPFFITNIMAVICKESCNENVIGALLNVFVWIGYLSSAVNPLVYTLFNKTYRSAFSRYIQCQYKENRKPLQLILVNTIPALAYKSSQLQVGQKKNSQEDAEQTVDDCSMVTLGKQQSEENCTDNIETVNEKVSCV

In turn, `O=C(CO)NCc1ccc2ccn(C3CCN(CCc4ccc(F)cc4)CC3)c2c1` [Example 364, 1-[1-(4-fluorophenethyl)piperidin-4-yl]-6-hydroxyacetamidomethylindole] gave a melting point of 76 to 78 °C. In addition, the Ki on α1 adrenalin receptor came out at 289 nM. Also, the Ki on serotonin 1A receptor was 1.73 nM. The Ki at serotonin 2 receptor came out at 4.23 nM.

`O=C(NCc1ccc2ccn(C3CCN(CCc4ccc(F)cc4)CC3)c2c1)C(F)F` [Example 365, 1-[1-(4-fluorophenethyl)piperidin-4-yl]-6-difluoroacetamidomethylindole] had a melting point of 79 to 80 °C. The molecule further had a Ki at α1 adrenalin receptor of 61.6 nM. Besides, the Ki at serotonin 1A receptor amounted to 0.42 nM. Besides, the Ki on serotonin 2 receptor is 3.11 nM.

On to `O=C(CF)NCc1ccc2ccn(C3CCN(CCc4ccc(F)cc4)CC3)c2c1` [Example 366, 1-[1-(4-fluorophenethyl)piperidin-4-yl]-6-fluoroacetamidomethylindole], for which the melting point was 106 to 108 °C. The molecule further had a Ki at α1 adrenalin receptor of 74.6 nM. For the same molecule, on serotonin 1A receptor, the Ki amounted to 0.48 nM. Besides, the Ki at serotonin 2 receptor was 2.05 nM.

`O=C(CCCl)NCc1ccc2ccn(C3CCN(CCc4ccc(F)cc4)CC3)c2c1` [Example 367, 1-[1-(4-fluorophenethyl)piperidin-4-yl]-6-(3-chloropropionylamino)methylindole] displayed a melting point of 121 to 122 °C. At α1 adrenalin receptor, this molecule showed a Ki of 45.8 nM. The Ki on serotonin 1A receptor was determined as 1.63 nM. On serotonin 2 receptor, the Ki came to 1.76 nM.

Regarding `CCC(=O)NCc1ccc2ccn(C3CCN(CCc4ccccc4F)CC3)c2c1` [Example 380, 1-[1-(2-fluorophenethyl)piperidin-4-yl]-6-propionylaminomethylindole], the melting point fell in the range of 118 to 119 °C. Also, on α1 adrenalin receptor, the Ki amounted to 116 nM. The Ki at serotonin 1A receptor amounted to 2.87 nM. Also, on serotonin 2 receptor, the Ki was found to be 1.56 nM.

Molecule `O=C(CCO)NCc1ccc2ccn(C3CCN(CCc4ccccc4F)CC3)c2c1` [Example 382, 1-[1-(2-fluorophenethyl)piperidin-4-yl]-6-(3-hydroxypropionylamino)methylindole] showed a melting point of 58 to 59 °C. The molecule also displayed a Ki at α1 adrenalin receptor of 163 nM. The Ki at serotonin 1A receptor came to 7.59 nM. Moreover, the Ki on serotonin 2 receptor was found to be 3.31 nM.

For the molecule `O=C(CO)NCc1ccc2ccn(C3CCN(CCc4ccccc4F)CC3)c2c1` [Example 383, 1-[1-(2-fluorophenethyl]piperidin-4-yl]-6-hydroxyacetamidomethylindole], the melting point fell in the range of 151 to 152 °C. Further, at α1 adrenalin receptor, the Ki amounted to 120 nM. Besides, the Ki on serotonin 1A receptor is 5.34 nM. In addition, the Ki at serotonin 2 receptor worked out at 1.81 nM.

In the case of `CN(C)C(=O)NCc1ccc2ccn(C3CCN(CCc4ccc(F)cc4)CC3)c2c1` [Example 385, 1-[1-(4-fluorophenethyl)piperidin-4-yl]-6-N,N-dimethylaminocarbonylaminomethylindole], the melting point was 115 to 116 °C. The molecule also displayed a Ki at α1 adrenalin receptor of 21.6 nM. Besides, on serotonin 1A receptor, the Ki turned out to be 2.41 nM. On serotonin 2 receptor, the Ki came out at 0.97 nM.

Consider `OCc1ccc2ccn(C3CCN(CCc4ccccc4F)CC3)c2c1` [Example 391, 1-[1-(2-fluorophenethyl)piperidin-4-yl]-6-hydroxymethylindole], for which the melting point lay in the range of 116.8 to 117.5 °C. This molecule registered a Ki on α1 adrenalin receptor of 116 nM. Further, at serotonin 1A receptor, the Ki is 1.72 nM. The Ki on serotonin 2 receptor turned out to be 6.83 nM.

In turn, `NC(=O)NCc1ccc2ccn(C3CCN(CCc4ccc(F)cc4)CC3)c2c1` [Example 393, 1-[1-(4-fluorophenethyl)piperidin-4-yl]-6-ureidomethylindole] registered a melting point of 171.9 to 172.8 °C. On α1 adrenalin receptor, the Ki was determined as 37.8 nM. Moreover, the Ki at serotonin 1A receptor came out at 0.85 nM. Moreover, the Ki on serotonin 2 receptor is 2.54 nM.

`CNC(=O)NCc1ccc2ccn(C3CCN(CCc4ccc(F)cc4)CC3)c2c1` [Example 397, 1-[1-(4-fluorophenethyl)piperidin-4-yl]-6-(3-methylureido)methylindole]: the melting point is 192 °C (dec.). At α1 adrenalin receptor, the Ki turned out to be 27.1 nM. The Ki at serotonin 1A receptor came out at 1.28 nM. At serotonin 2 receptor, the Ki was 2.27 nM.

Usually melting point stands for the temperature of the solid-liquid transition.

The record behind these values is patent publication US6579881B2 (Eisai Co., Ltd., priority 1997, dated 2003).
